In patent US20140349852A1, “METABOLIC CONTROL OF SEED GERMINATION” (Oregon State University, priority 2010, published 2014):

What was measured:
[1] = tested on: AGE:NCED6 transgenic Camelina seeds; assay: Germination test of Camelina AGE:NCED6 seeds; assay type: in vivo, Camelina sativa; design: recovery of germination of MOF-induced AGE:NCED6 Camelina seeds: dose or concentration left out as unconfirmed
Method: (§1) For the induction experiment in imbibed seeds, seeds were placed in 9 cm plastic petri dishes on two layers of filter paper (No. 2, Whatman Inc.) moistened with 4 mL water or (122.6 μM or 2×10,000) MOF or 1 mM ABA and incubated at 4° C. for overnight and at 22° C. for 72 h (germination tests and gene expression analysis).
To determine whether there was an effect of the AGE: NCED6 expression vector on the ability of transgenic seeds to undergo germination, wild-type and homozygous seeds from transgenic plant lines, 16-12, 17-17, and 13-12, were imbibed for three days in the presence or absence of MOF. […] Control seeds of non-transgenic plants were shown the same in the presence or absence of MOF. Germination of Camelina seeds is observed initially as ruptured testa followed by emergence of the […] when the radicle emerges.

[2] = tested on: AGE:NCED6 seeds; assay: Germination test of imbibed AGE:NCED6 seeds; assay type: in vivo, Arabidopsis thaliana; details: 10 μM fluridone co-applied with Intrepid®2F
Method: Briefly, for the induction of AGE:NCED6 plants at ˜10 rosette stages, diluted (×10,000), Intrepid®2F (Dow AgroSciences) solution which contained 62 μM MOF as an active ingredient was applied directly to the soil in pots containing Arabidopsis seedlings by drenching. Seedling were harvested two days after induction and frozen at −80° C. before RNA extraction. For the induction experiments in imbibed seeds, seeds were placed in 9 cm plastic petri dishes on two layers of filter paper (No. 2, Whatman Inc) moistened with 3.5 mL water or Intrepid®2F (×10,000) and incubated at 4° C. for 3 days and at 22° C. for 29 h (gene expression analysis) or 5 days (germination tests).

[3] = tested on: ABA levels in AGE:NCED6 Camelina seeds; assay: ABA quantification in Camelina seeds by mass spectrometry; assay type: in vivo, Camelina sativa; details: after application of MOF
Method: ABA was quantified by a previously published method (44), but was modified to ABA. Briefly, samples were ground in liquid nitrogen and internal standards ([…] of 2.5 mM) were added. Samples were extracted with 1.5 mL acetonitrile/methanol (1:1 v:v). After lyophilization, samples were resolubilized in […] of 50% MeOH. For LC separation, two monolithic C18 columns (Onyx, 4.6 mm×100 mm, Phenomenex) with a guard cartridge were used flowing at 1 mL min^−1. […] For quantitation, a series of standards were prepared containing different concentrations of ABA mixed with D-labeled ABA (250 μmol/sample). […] The peak areas of endogenous ABA were normalized with the corresponding internal standard and then calculated according to the standard curve.
To examine whether ABA levels in the AGE: NCED6 seeds were affected by gene induction, ABA in wild-type and the AGE: NCED6 seeds was quantified by mass spectrometry, as described previously. […]

[4] = tested on: control seeds of non-transgenic plants; assay: Germination test of wild-type Camelina seeds; assay type: in vivo, Camelina sativa; details: presence or absence of MOF
Method: as §1

[5] = tested on: Arabidopsis NCED6 expression in AGE:NCED6 Camelina seeds; assay: Real time PCR analysis of Arabidopsis NCED6 in Camelina seeds; assay type: in vivo, Camelina sativa; details: imbibed three days in the presence or absence of MOF
[6] = tested on: AGE:CYP707A2 transgenic Camelina seeds; assay: Germination test of Camelina AGE:CYP707A2 seeds; assay type: in vivo, Camelina sativa; details: imbibed three days in the presence of MOF or MOF+ABA (1 mM ABA)
Method: as §1
To determine whether there was an effect of AGE: CYP707A2 transgenic seeds on germination during imbibitions, wild-type and homozygous seeds from transgenic plant lines, 14-3, 3-6, and 2-1, were imbibed for three days in the presence of MOF or in the presence of MOF+ABA.

Compound	recovery of germination of MOF-induced AGE:NCED6 Camelina seeds ([1]; co-application of MOF and fluridone, data not shown)	recovery of germination of ligand-suppressed AGE:NCED6 seeds [2]	ABA in AGE:NCED6 Camelina seeds [3]	inhibition of germination (endosperm rupture and radicle protrusion), line 13-12 ([1]; AGE:NCED6 Camelina line 13-12, MOF, three days) [%]	inhibition of germination (endosperm rupture and radicle protrusion), line 16-12 ([1]; AGE:NCED6 Camelina line 16-12, MOF, three days) [%]	inhibition of germination (endosperm rupture and radicle protrusion), line 17-17 ([1]; AGE:NCED6 Camelina line 17-17, MOF, three days) [%]	germination of AGE:NCED6 Camelina seeds ([1]; imbibed three days in the presence of MOF (122.6 μM))	germination of control seeds of non-transgenic Camelina plants [4]	Arabidopsis NCED6 expression in Camelina seeds by real time PCR [5]	germination of AGE:CYP707A2 Camelina seeds, line 2-1 [6] [%]	germination of AGE:CYP707A2 Camelina seeds, line 3-6 [6] [%]	germination of AGE:CYP707A2 Camelina seeds, line 14-3 [6] [%]
fluridone	fully rescued	fully rescued										
COc1cccc(C(=O)NN(C(=O)c2cc(C)cc(C)c2)C(C)(C)C)c1C [MOF, methoxyfenozide]			remarkable increase in ABA	95	89	90	inhibited dramatically	the same	did not detect	95	98	99
